Experimental data reported in patent publication US20150211028A1, “Production of 1,3-Propanediol in Cyanobacteria” (Algenol Biofuels Inc., priority 2013, published 2015).

Key:
[1] = system: Synechococcus sp. PCC 7002; assay: Tolerance testing: growth (OD750) after a one time bolus of 1,3-propanediol; format: cell-based; details: OD750 monitored for one week
Excerpt: (§1) The tolerance of cyanobacterial strains Synechocystis sp. PCC 6803 and Synechococcus sp. PCC 7002 to the presence of accumulated 1,3-propanediol in the culture medium was examined by adding a one time bolus of varying amounts of 1,3-propanediol (ranging from 0.05% to 5%) to exponential phase cultures and comparing the growth of these cultures to a wild type culture with no addition. Growth was monitored by optical density (OD750) for one week. There was no effect on the growth of Synechocystis sp. PCC 6803 in the presence of up to 1% 1,3-propanediol compared to the control (no addition of 1,3-propanediol). […] At 5% 1,3-propanediol, Synechocystis sp. […] There was no effect on the growth of Synechococcus sp. PCC 7002 with up to 1% 1,3-propanediol addition.

[2] = system: Synechocystis sp. PCC 6803; assay: as above; format: cell-based; details: OD750 monitored for one week
Excerpt: as §1

Q: OCCCO [1,3-propanediol] was tested. Which “survival of the culture” value ([1]; 2% 1,3-propanediol addition) did it give?
A: lethal resulting in a completely bleached culture

Q: What about the “effect on growth compared to the control” value ([1]; up to 1% 1,3-propanediol addition, exponential phase culture) of the same compound?
A: no effect

Q: And the “effect on growth compared to the control” value ([2]; 2% and 3% 1,3-propanediol in culture medium)?
A: inhibition effect resulting in a yellowing discoloration of the culture, slower growth and clumping

Q: And the “survival of the culture” value ([2]; 5% 1,3-propanediol in culture medium)?
A: could not survive and bleached out after 3 days

Q: And the “effect on growth compared to the control” value ([2]; up to 1% 1,3-propanediol in culture medium, exponential phase culture)?
A: no effect
